Legend:
Type in all cases: cell-based
[1] = tested on: primary human hepatocyte (PHH); assay: PHH natural infection assay, cytotoxicity (Cell Counting Kit-8); details: HBV-infected primary human hepatocytes, CCK8, end of treatment
Outline: (§1)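 HBV-infected at 200 GE/cell with 4% PEG8000 for 24 h, then sandwich-cultured 72 h in 1% DMSO and 0.25 mg/mL matrix gel. Compound added twice at 72-h intervals; supernatant HBsAg and HBeAg read by AlphaLISA, HBV DNA by quantitative fluorescence PCR kit. Cytotoxicity by CCK-8.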

HBsAg = assay: PHH HBV natural infection assay, HBsAg (alphalisa); details: Hepatitis B virus, Hepatocyte, 72 h, read-out: HBsAg IC50, HBV-infected primary human hepatocytes, supernatant, compound medium refreshed two times with 72-hour interval
Outline: (§2)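 Primary human hepatocytes infected with HBV at 200 GE/cell plus 4% PEG8000 for 24 h, then sandwich-cultured 72 h. Compounds were added in two refreshes 72 h apart. HBsAg and HBeAg in supernatant measured by AlphaLISA.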

[2] = PHH natural infection assay, cytotoxicity (Cell Counting Kit-8); details: human, HBV-infected primary human hepatocytes, CCK8, end of treatment
Outline: as §1

HBeAg = assay: PHH HBV natural infection assay, HBeAg (alphalisa); details: Hepatitis B virus, Hepatocyte, 72 h, read-out: HbeAg IC50, HBV-infected primary human hepatocytes, supernatant, compound medium refreshed two times with 72-hour interval
Outline: as §2

SMILES | CC50 [1] [µM] | IC50 (HBsAg) [µM] | CC50 at 144 h [2] [µM] | IC50 (HBeAg) [µM]
N=S(=O)(c1ccc(C(=O)NC2CC3(C2)CC(c2nc4cc(Cl)cnc4o2)C3)o1)C1CC1 (single isomer, unassigned) [Example 64-d, N-[6-(6-chlorooxazolo[5,4-b]pyridin-2-yl)spiro[3.3]heptan-2-yl]-5-(cyclopropylsulfonimidoyl)furan-2-carboxamide] | > 10 | – | – | –
N=S(=O)(CC1COC1)c1ccc(C(=O)NC2CC3(C2)CC(c2nc4cc(Cl)ccc4o2)C3)o1 (stereo not shown) [Example 56, N-[6-(5-chloro-1,3-benzoxazol-2-yl)spiro[3.3]heptan-2-yl]-5-(oxetan-3-ylmethylsulfonimidoyl)furan-2-carboxamide] | – | 4.41 | > 100 | 2.9
N=S(=O)(CC1CC(F)(F)C1)c1ccc(C(=O)NC2CC3(C2)CC(c2nc4cc(Cl)ccc4o2)C3)o1 (stereo not shown) [Example 57, N-[6-(5-chloro-1,3-benzoxazol-2-yl)spiro[3.3]heptan-2-yl]-5-[(3,3-difluorocyclobutyl)methylsulfonimidoyl]furan-2-carboxamide] | – | 0.884 | 81.9 | 0.754
CCS(=N)(=O)Cc1ccc(C(=O)NC2CC3(C2)CC(c2nc4cc(Cl)ccc4o2)C3)o1 (stereo not shown) [Example 58, N-[6-(5-chloro-1,3-benzoxazol-2-yl)spiro[3.3]heptan-2-yl]-5-[(ethylsulfonimidoyl)methyl]furan-2-carboxamide] | – | 8.79 | > 100 | 5.88
CC(C)S(=N)(=O)Cc1ccc(C(=O)NC2CC3(C2)CC(c2nc4cc(Cl)ccc4o2)C3)o1 (stereo not shown) [Example 59, N-[6-(5-chloro-1,3-benzoxazol-2-yl)spiro[3.3]heptan-2-yl]-5-[(isopropylsulfonimidoyl)methyl]furan-2-carboxamide] | – | 3.81 | > 100 | 2.6
N=S(=O)(Cc1ccc(C(=O)NC2CC3(C2)CC(c2nc4cc(Cl)ccc4o2)C3)o1)C1CC1 (stereo not shown) [Example 60, N-[6-(5-chloro-1,3-benzoxazol-2-yl)spiro[3.3]heptan-2-yl]-5-[(cyclopropylsulfonimidoyl)methyl]furan-2-carboxamide] | – | 1.96 | > 100 | 1.91
O=C(NC1CC2(C1)CC(c1nc3cc(Cl)ccc3o1)C2)c1ccc(S2(=O)=NCCC2)o1 (stereo not shown) [Example 61, N-[6-(5-chloro-1,3-benzoxazol-2-yl)spiro[3.3]heptan-2-yl]-5-(1-oxo-4,5-dihydro-3H-isothiazol-1-yl)furan-2-carboxamide] | – | 3.65 | > 100 | 3.14
O=C(NC1CC2(C1)CC(c1nc3cc(Cl)ccc3o1)C2)c1ccc(S2(=O)=NCCCC2)o1 (stereo not shown) [Example 62, N-[6-(5-chloro-1,3-benzoxazol-2-yl)spiro[3.3]heptan-2-yl]-5-(1-oxo-1lambda6-thia-2-azacyclohexen-1-yl)furan-2-carboxamide] | – | 5.01 | > 100 | 4.85
CS(=N)(=O)c1ccc(C(=O)NC2CC3(C2)CC(c2nc4cc(Cl)cnc4o2)C3)o1 (stereo not shown) [Example 63, N-[6-(6-chlorooxazolo[5,4-b]pyridin-2-yl)spiro[3.3]heptan-2-yl]-5-(methylsulfonimidoyl)furan-2-carboxamide] | – | 6.69 | > 100 | 4.94
N=S(=O)(c1ccc(C(=O)NC2CC3(C2)CC(c2nc4cc(Cl)cnc4o2)C3)o1)C1CC1 (stereo not shown) [Example 64, N-[6-(6-chlorooxazolo[5,4-b]pyridin-2-yl)spiro[3.3]heptan-2-yl]-5-(cyclopropylsulfonimidoyl)furan-2-carboxamide] | – | 2.93 | > 100 | 2.33
N=S(=O)(c1ccc(C(=O)NC2CC3(C2)CC(c2nc4cnc(Cl)cc4o2)C3)o1)C1CC1 (stereo not shown) [Example 65, N-[6-(6-chlorooxazolo[4,5-c]pyridin-2-yl)spiro[3.3]heptan-2-yl]-5-(cyclopropylsulfonimidoyl)furan-2-carboxamide] | – | 6.38 | > 100 | 5.83
N=S(=O)(c1ccc(C(=O)NC2CC3(C2)CC(c2nc4cc(Cl)ccc4o2)C3)o1)N1CCCC1 (stereo not shown) [Example 66, N-[6-(5-chloro-1,3-benzoxazol-2-yl)spiro[3.3]heptan-2-yl]-5-(pyrrolidin-1-ylsulfonimidoyl)furan-2-carboxamide] | – | 8.18 | > 10 | 3.81
N=S(=O)(c1ccc(C(=O)NC2CC3(C2)CC(c2nc4cc(Cl)ccc4o2)C3)o1)N1CCOCC1 (stereo not shown) [Example 67, N-[6-(5-chloro-1,3-benzoxazol-2-yl)spiro[3.3]heptan-2-yl]-5-(morpholinosulfonimidoyl)furan-2-carboxamide] | – | 6.24 | > 10 | 3.65
CCCC(=O)NS(=O)(=O)c1ccc(C(=O)N[C@H]2CC3(C2)C[C@H](c2nc4cc(Cl)ccc4o2)C3)o1 (stereo partly shown) [Example 69] | – | 0.329 | > 100 | 0.223
O=C(N[C@H]1CC2(C1)C[C@H](c1nc3cc(Cl)ccc3o1)C2)c1ccc(S(=O)(=O)NC(=O)C2CCOC2)o1 (stereo partly shown) [Example 77, (Sa)—N-[6-(5-chloro-1,3-benzoxazol-2-yl)spiro[3.3]heptan-2-yl]-5-(tetrahydrofuran-3-carbonylsulfamoyl)furan-2-carboxamide, or (Ra)—N-[6-(5-chloro-1,3-benzoxazol-2-yl)spiro[3.3]heptan-2-yl]-5-(tetrahydrofuran-3-carbonylsulfamoyl)furan-2-carboxamide] | – | 1.16 | > 100 | 0.563
CC(=O)NS(=O)(=O)c1ccc(C(=O)NC2CC3(C2)CC(c2nc4cc(Cl)ccc4o2)C3)o1 (stereo not shown) [Example 80, 5-(acetylsulfamoyl)-N-[6-(5-chloro-1,3-benzoxazol-2-yl)spiro[3.3]heptan-2-yl]furan-2-carboxamide] | – | 2.77 | > 100 | 1.8
O=C(NC1CC2(C1)CC(c1nc3cc(Cl)ccc3o1)C2)c1ccc(S(=O)(=O)NC(=O)C2CCCC2)o1 (stereo not shown) [Example 81, N-[6-(5-chloro-1,3-benzoxazol-2-yl)spiro[3.3]heptan-2-yl]-5-(cyclopentanecarbonylsulfamoyl)furan-2-carboxamide] | – | 1.74 | 11.3 | 0.796
O=C(NC1CC2(C1)CC(c1nc3cc(Cl)ccc3o1)C2)c1ccc(S(=O)(=O)NC(=O)C2CCCCC2)o1 (stereo not shown) [Example 82, N-[6-(5-chloro-1,3-benzoxazol-2-yl)spiro[3.3]heptan-2-yl]-5-(cyclohexanecarbonylsulfamoyl)furan-2-carboxamide] | – | 0.461 | 85.7 | 0.224
O=C(NC1CC2(C1)CC(c1nc3cc(Cl)ccc3o1)C2)c1ccc(S(=O)(=O)NC(=O)C2CS(=O)(=O)C2)o1 (stereo not shown) [Example 83, N-[6-(5-chloro-1,3-benzoxazol-2-yl)spiro[3.3]heptan-2-yl]-5-[(1,1-dioxothietane-3-carbonyl)sulfamoyl]furan-2-carboxamide] | – | 3.3 | > 10 | 1.97
O=C(NC1CC2(C1)CC(c1nc3cc(Cl)ccc3o1)C2)c1ccc(S(=O)(=O)NC(=O)C2CCS(=O)(=O)C2)o1 (stereo not shown) [Example 84, N-[6-(5-chloro-1,3-benzoxazol-2-yl)spiro[3.3]heptan-2-yl]-5-[(1,1-dioxothiolane-3-carbonyl)sulfamoyl]furan-2-carboxamide] | – | 9 | > 10 | 6.32
O=C(NC1CC2(C1)CC(c1nc3cc(Cl)ccc3o1)C2)c1ccc(S(=O)(=O)NC(=O)C2CCCS(=O)(=O)C2)o1 (stereo not shown) [Example 85, N-[6-(5-chloro-1,3-benzoxazol-2-yl)spiro[3.3]heptan-2-yl]-5-[(1,1-dioxothiane-3-carbonyl)sulfamoyl]furan-2-carboxamide] | – | 2.52 | > 10 | 1.67
O=C(NC1CC2(C1)CC(c1nc3cc(Cl)ccc3o1)C2)c1ccc(S(=O)(=O)NC(=O)C2COC2)o1 (stereo not shown) [Example 86, N-[6-(5-chloro-1,3-benzoxazol-2-yl)spiro[3.3]heptan-2-yl]-5-(oxetane-3-carbonylsulfamoyl)furan-2-carboxamide] | – | 2.99 | > 10 | 2.19
O=C(NC1CC2(C1)CC(c1nc3cc(Cl)ccc3o1)C2)c1ccc(S(=O)(=O)NC(=O)C2CCOCC2)o1 (stereo not shown) [Example 87, N-[[5-[[6-(5-chloro-1,3-benzoxazol-2-yl)spiro[3.3]heptan-2-yl]carbamoyl]-2-furyl]sulfonyl]tetrahydropyran-4-carboxamide] | – | 1.3 | > 10 | 0.981
CNS(=O)(=O)c1ccc(C(=O)NC2CC3(C2)CC(c2nc4cc(Cl)ccc4o2)C3)o1 (stereo not shown) [Example 88, N-[6-(5-chloro-1,3-benzoxazol-2-yl)spiro[3.3]heptan-2-yl]-5-(methylsulfamoyl)furan-2-carboxamide] | – | 1 | > 10 | 0.687
CN(C)S(=O)(=O)c1ccc(C(=O)NC2CC3(C2)CC(c2nc4cc(Cl)ccc4o2)C3)o1 (stereo not shown) [Example 89, N-[6-(5-chloro-1,3-benzoxazol-2-yl)spiro[3.3]heptan-2-yl]-5-(dimethylsulfamoyl)furan-2-carboxamide] | – | 1.04 | > 10 | 0.723
